Each block holds one molecule with its values, some of them ahead of it. Active and inactive are the calls of the source.
How the values were obtained:
[1] = non-specific 3'UTR reporter inhibition in Clone20-Shn3RL – cell-based, Renilla luciferase, cherry-picked, counter-screen for Shn3 inhibitor project, dose response (AID 624133); type: functional
[2] = reduction of Shn3 3'UTR-driven luciferase in osteoblasts – cell-based, Clone20 osteoblasts, firefly luciferase, cherry-picked, dose response (AID 624132); type: functional;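 note: firefly luciferase luminescence from reporter carrying the Shn3 3'UTR in osteoblasts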
[3] = loss of viability in HepG2 cells – cell-based, CellTiter-Glo, cherry-picked, cytotoxicity control for Shn3 inhibitor project, dose response (AID 624134); type: functional
[4] = system: P388; assay: cells; type: functional; details: Mus musculus
[5] = system: P388/ADR; assay: cells; type: functional; details: Mus musculus
[6] = system: SN12K1; assay: cells; type: functional; details: Homo sapiens
[7] = biological target: T1, Zinc finger protein mex-5 (Caenorhabditis elegans, UniProt Q9XUB2); assay: potency of MEX-5 RNA-binding blockers – biochemical, C. elegans, fluorescence polarization, dose response (AID 1960)
T1 sequence (Q9XUB2 whole entry): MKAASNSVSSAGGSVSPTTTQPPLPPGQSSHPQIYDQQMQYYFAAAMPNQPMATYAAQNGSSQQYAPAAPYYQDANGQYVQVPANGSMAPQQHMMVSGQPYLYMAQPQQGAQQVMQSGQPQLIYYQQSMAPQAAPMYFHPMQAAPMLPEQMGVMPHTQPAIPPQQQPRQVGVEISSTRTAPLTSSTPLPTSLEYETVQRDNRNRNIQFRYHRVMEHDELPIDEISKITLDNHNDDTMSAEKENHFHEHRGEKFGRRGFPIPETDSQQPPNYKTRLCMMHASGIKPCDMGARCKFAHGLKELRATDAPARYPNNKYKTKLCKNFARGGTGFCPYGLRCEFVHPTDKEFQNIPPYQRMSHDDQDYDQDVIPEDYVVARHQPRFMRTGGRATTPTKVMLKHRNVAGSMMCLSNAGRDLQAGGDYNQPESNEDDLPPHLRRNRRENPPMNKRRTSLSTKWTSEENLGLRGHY

[8] = biological target: T2, RNA-binding protein pos-1 (Caenorhabditis elegans, UniProt G5EF15); assay: disruptors of C. elegans POS-1 RNA interaction – biochemical, fluorescence polarization, dose response (AID 1964);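 note: purified POS-1 fused to maltose binding protein made in E. coli; potency of compounds blocking POS-1 binding to fluorescent RNA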
T2 sequence (G5EF15 whole entry): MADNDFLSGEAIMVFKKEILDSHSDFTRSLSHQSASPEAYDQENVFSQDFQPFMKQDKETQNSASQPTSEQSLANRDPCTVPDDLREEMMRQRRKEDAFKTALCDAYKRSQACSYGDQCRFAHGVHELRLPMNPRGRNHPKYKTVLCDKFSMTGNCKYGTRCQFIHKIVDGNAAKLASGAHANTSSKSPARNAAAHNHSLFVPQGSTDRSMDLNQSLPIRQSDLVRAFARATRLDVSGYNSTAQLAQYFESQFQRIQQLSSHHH

[9] = system: HEK293; assay: EBV LMP1 TES2 canonical NF-kB signalling blockers – cell-based, HEK293, luciferase, cherry-pick, dose response (AID 588343); type: functional; details: Homo sapiens
[10] = biological target: T3, Short transient receptor potential channel 4 (Mus musculus, UniProt Q9QUQ5); assay: calcium entry via TRPC4 opening agents – cell-based, HEK293 TRPC4/mu-opioid, Fluo-4 calcium, dose response (AID 434937); type: functional
T3 sequence (Q9QUQ5 whole entry): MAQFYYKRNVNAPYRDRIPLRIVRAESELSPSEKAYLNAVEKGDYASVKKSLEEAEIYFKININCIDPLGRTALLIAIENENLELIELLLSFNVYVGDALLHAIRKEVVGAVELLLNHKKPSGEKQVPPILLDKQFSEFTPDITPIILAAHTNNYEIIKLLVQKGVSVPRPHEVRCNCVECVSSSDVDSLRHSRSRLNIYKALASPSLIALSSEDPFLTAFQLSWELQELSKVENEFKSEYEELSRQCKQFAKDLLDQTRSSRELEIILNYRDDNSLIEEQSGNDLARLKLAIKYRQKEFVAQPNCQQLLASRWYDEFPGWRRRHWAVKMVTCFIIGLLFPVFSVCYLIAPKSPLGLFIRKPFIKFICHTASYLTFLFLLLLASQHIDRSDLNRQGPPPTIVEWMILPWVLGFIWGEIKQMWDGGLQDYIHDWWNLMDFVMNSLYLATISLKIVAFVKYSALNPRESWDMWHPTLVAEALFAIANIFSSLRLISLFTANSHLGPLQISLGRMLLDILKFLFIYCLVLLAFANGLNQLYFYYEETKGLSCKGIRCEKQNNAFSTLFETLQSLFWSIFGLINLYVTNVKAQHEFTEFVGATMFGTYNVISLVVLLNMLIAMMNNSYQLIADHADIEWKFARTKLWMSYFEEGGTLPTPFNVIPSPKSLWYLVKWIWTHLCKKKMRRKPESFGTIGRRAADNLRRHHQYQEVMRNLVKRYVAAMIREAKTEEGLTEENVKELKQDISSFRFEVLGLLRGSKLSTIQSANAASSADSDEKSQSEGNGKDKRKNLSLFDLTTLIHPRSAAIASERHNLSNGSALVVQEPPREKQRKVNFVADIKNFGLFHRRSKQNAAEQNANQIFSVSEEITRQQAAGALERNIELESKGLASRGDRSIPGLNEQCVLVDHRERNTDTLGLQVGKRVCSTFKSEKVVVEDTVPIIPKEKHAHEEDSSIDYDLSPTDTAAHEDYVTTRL

[11] = system: Streptococcus; assay: GAS UMAA2166 growth inhibition – luminescence, BacTiterGlo, counter-screen for streptokinase expression inhibitor project, dose response (AID 1915); type: functional, organism-based;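 note: potency for reduction of bacterial viability or growth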
[12] = system: Streptococcus sp. 'group A'; assay: Streptococcus pyogenes SK(-)GAS viability under kanamycin – luminescence, BacTiterGlo, confirmation, counter-screen for streptokinase expression inhibitor project, dose response (AID 1900); type: functional, organism-based
[13] = biological target: T4, Leucine aminopeptidase (Plasmodium falciparum 3D7, UniProt Q8IL11); assay: P. falciparum M17LAP inhibitors, primary screen, biochemical, fluorogenic H-Leu-NHMec substrate, 1536-well (AID 1619); type: functional
T4 sequence (Q8IL11 whole entry): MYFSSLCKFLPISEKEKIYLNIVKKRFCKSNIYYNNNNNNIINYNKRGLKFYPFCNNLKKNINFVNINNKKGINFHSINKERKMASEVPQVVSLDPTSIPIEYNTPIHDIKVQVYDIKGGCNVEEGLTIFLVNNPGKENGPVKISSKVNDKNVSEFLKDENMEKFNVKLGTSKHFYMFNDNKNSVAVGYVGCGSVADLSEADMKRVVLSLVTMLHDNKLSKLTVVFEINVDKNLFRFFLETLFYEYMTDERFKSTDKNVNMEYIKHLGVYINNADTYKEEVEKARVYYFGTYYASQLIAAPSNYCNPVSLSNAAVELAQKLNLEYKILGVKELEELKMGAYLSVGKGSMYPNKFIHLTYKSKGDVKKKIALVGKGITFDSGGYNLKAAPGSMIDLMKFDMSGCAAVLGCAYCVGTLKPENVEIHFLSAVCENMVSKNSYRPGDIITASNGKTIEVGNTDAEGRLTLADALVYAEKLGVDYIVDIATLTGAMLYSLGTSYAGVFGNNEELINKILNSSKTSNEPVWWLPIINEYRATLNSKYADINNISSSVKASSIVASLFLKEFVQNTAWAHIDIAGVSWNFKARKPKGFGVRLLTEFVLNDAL

[14] = biological target: T5, Polyadenylate-binding protein 1 (Homo sapiens, UniProt P11940); assay: MLLE domain peptide-binding blockers, IC50 – biochemical, fluorescence polarization, FITC-PAM2 peptide, dose response (AID 602259); type: functional; details: read-out: IC50_Mean
T5 sequence (P11940 whole entry, the tested form may be a part): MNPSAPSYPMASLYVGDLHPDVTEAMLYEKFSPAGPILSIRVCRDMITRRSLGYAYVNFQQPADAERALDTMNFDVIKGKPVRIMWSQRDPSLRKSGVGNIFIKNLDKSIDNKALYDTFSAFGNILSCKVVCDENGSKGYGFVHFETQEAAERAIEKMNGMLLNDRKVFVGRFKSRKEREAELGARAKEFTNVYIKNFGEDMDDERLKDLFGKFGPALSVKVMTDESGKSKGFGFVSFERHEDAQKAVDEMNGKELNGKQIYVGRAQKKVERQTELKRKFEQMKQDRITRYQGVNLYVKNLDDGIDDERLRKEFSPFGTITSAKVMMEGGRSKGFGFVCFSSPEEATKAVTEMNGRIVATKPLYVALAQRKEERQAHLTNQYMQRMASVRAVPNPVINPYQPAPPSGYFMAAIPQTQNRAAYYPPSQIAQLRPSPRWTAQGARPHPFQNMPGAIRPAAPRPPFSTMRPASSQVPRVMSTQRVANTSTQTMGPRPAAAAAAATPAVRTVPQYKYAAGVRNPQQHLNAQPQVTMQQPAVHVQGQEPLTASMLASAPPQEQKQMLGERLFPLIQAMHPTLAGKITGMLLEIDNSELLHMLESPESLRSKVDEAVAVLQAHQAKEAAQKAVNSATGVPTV

[15] = biological target: T5, Polyadenylate-binding protein 1; assay: MLLE binding blockers, Cy5 peptide tracer – biochemical, fluorescence polarization, Cy5-PAM2 peptide, secondary, miRNA deadenylation inhibitor project, dose response (AID 602260); type: functional; details: read-out: IC50_Mean
[16] = biological target: Cytochrome P450 2C19 (Homo sapiens, UniProt P33261); assay: Cytochrome panel assay with activity outcomes. Panel member name: p450-cyp2c19 Compounds with AC50 equal or less than 10 uM are considered active; type: functional; details: read-out: AC50
Sequence of Cytochrome P450 2C19 (P33261 whole entry): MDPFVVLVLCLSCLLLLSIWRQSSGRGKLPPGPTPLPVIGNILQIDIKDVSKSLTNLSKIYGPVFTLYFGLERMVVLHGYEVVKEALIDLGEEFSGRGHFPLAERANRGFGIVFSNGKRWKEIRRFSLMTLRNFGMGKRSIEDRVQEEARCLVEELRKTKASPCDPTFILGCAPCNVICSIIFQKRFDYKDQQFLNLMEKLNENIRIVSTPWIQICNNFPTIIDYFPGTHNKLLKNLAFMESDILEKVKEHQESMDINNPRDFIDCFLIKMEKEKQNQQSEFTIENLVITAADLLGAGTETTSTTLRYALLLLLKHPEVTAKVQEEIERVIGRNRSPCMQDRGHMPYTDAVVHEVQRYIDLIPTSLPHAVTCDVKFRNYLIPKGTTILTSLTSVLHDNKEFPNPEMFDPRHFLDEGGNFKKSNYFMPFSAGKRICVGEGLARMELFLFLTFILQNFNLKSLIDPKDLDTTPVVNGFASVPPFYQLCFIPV

SMILES: CC1Sc2ccc(S(=O)(=O)N3CCC(C(=O)Nc4cccc(Cl)c4)CC3)cc2NC1=O (stereo not drawn)
AC50 [1]: 8.77 µM (active) | AC50 [2]: 3.27 µM (active) | AC50 [3]: 44.6 µM (active)

SMILES: CC(=O)OC1C(O)C(C)OC(OC(=O)C2CCC3C(C2)OC2(CC(OC(=O)/C=C/c4ccccc4)C(C)CO2)C32CO2)C1OC1OC(C)C(O)C(O)C1O (stereo not drawn)
GI50 [4]: 0.306 µM (active) | GI50 [5]: 20.9 µM (inactive) | GI50 [6]: 0.0348 µM (active)

SMILES: CCC/C=C/C=C/C(=O)OC1/C(=C/C(=O)OC)CC2CC(C(C)O)OC(=O)CC(O)CC3CC(OC(C)=O)C(C)(C)C(O)(CC4C/C(=C/C(=O)OC)CC(/C=C/C(C)(C)C1(O)O2)O4)O3 (stereo not drawn)
GI50 [4]: 2.16 µM (inactive)

SMILES: CC1=NN(C(N)=S)C(=O)C1N=Nc1cccc(C(=O)O)c1 (stereo not drawn)
EC50 [7]: 22.7 µM (active) | EC50 [8]: 35.1 µM (active) | AC50 [9]: 33.1 µM (active)

SMILES: CC1Cc2ccccc2N1c1ncnc(N)c1[N+](=O)[O-] (stereo not drawn)
AC50 [9]: 2.41 µM (active)

SMILES: Cc1ccccc1OCC(=O)NNC(=S)NC(=O)c1ccco1
EC50 [10]: 9.44 µM (active) | EC50 [11]: 2.45 µM (active) | EC50 [12]: 0.599 µM (active)

EC50 [10]: 3.35 µM (active)
SMILES: CCOC(=O)[C@@H]1CCNC[C@@H]1c1ccccc1

IC50 [13]: 3.8 µM (active) | IC50 [14]: > 66 µM (inactive) | IC50 [15]: > 66 µM (inactive)
SMILES: CC(Sc1ccc2c(c1)OCCO2)C(=O)Nc1ncc(Cl)cc1Cl (stereo not drawn)

SMILES: C#CC[N+](CCO)(CCO)CCCCCCCCCCCCCCCCCC
GI50 [4]: 1.08 µM (active) | GI50 [5]: 8.55 µM (inactive) | GI50 [6]: 13 µM (inactive)

IC50 [13]: 13.2 µM (active)
SMILES: Cc1ccc(C(=O)Nc2ccc(Oc3ccc(C(=O)O)c(C(=O)O)c3)cc2)cc1C

SMILES: CC(C)(C)OC(=O)NC1CCC(C(C)(C)C)CC1 (stereo not drawn)
GI50 [4]: 15.9 µM (inactive) | GI50 [5]: 30 µM (inactive) | GI50 [6]: 45.4 µM (inactive)

AC50 [16]: 25.1 µM (inconclusive) | IC50 [13]: 15.7 µM (active)
SMILES: Cn1c(C(=O)O)c(CC(=O)NCC2COc3ccccc3O2)c2ccccc21 (stereo not drawn)

EC50 [10]: 2.11 µM (active)
SMILES: CCOc1ccccc1CN1CCNC(=O)C1CC(=O)N(C)CCc1ccccn1 (stereo not drawn)

— ChEMBL document CHEMBL1201862, “PubChem BioAssay data set” (2004)
